Measurements taken from patent US20120004215A1 (priority 2009, published 2012).

Target: α7-subtype of nicotinic receptors (Mus musculus, UniProt P49582)
Assay type: in vivo, mice
Settings: ex vivo, mouse hippocampal membranes; dose inhibiting specific binding of 3H-α-bungarotoxin (1 nM) by 50%

α7-subtype of nicotinic receptors, sequence (P49582 23-502): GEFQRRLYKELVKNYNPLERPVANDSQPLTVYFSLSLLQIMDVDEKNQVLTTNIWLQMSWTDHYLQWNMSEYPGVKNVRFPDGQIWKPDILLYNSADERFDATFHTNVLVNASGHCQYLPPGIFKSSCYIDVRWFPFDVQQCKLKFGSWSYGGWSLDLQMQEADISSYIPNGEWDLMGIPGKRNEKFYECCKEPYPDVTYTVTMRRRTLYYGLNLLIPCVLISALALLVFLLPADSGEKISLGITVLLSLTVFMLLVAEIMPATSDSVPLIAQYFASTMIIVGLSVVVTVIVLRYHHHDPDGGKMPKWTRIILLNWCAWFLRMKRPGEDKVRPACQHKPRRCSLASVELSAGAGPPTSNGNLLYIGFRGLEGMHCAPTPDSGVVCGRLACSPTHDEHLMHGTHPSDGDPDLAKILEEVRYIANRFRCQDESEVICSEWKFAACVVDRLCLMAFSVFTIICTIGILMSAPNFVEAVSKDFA

Compound: O=c1c2ccccc2nnn1-c1cnc(N2CC[N+]3([O-])CCC2CC3)nc1 [Compound 1, 3-[2-(1-Oxy-1,4-diaza-bicyclo[3.2.2]non-4-yl)-pyrimidin-5-yl]-3H-benzo[d][1,2,3]-triazin-4-one]
- EC50 (mg/kg), Inhibition of 3H-α-Bungarotoxine Binding: 9.4 mg/kg
